Literature values as cited in patent publication US10751291B2, “Nanoparticulate compositions comprising interferon gamma and losartan for immunotherapy” (Yale University, priority 2013, dated 2020).

Settings: oral administration

## CCCCc1nc(Cl)c(CO)n1Cc1ccc(-c2ccccc2-c2nn[nH]n2)cc1 [Losartan]
  oral absorption: well absorbed
